Literature values as cited in patent US20080014261A1, “Non-narcotic biphasic release compositions and methods for treatment of coughing, sneezing, rhinorrhea, and/or nasal obstruction” (priority 2006, published 2008).

Conditions: in vivo

plasma half life: one
SMILES: COc1ccccc1OCC(O)CO (stereo not shown) [Guaifenesin, 3-(2-methoxyphenoxy)-1,2 propanediol]
